According to patent publication US20260102472A1, “SEMAGLUTIDE IN MEDICAL THERAPY” (Novo Nordisk A/S, priority 2023, published 2026):

Test system: human subjects with obesity-related heart failure with preserved ejection fraction, and type 2 diabetes
Assay: Randomised, double-blind, placebo-controlled clinical trial of semaglutide in obesity-related HFpEF and type 2 diabetes (Example 2)
Format: in vivo
Settings: for Time to first HF event from randomisation leading to either hospitalisation or an urgent visit, Hazard ratio: Semaglutide 2.4 mg/placebo
Excerpt: The Kansas City Cardiomyopathy Questionnaire (KCCQ) is a disease-specific health status instrument composed of 23 items that quantify the domains of physical limitation, symptoms, self-efficacy, social limitation, and health-related quality of life limitation from heart failure (available via cvoutcomes.org). The questions of the KCCQ are as published in the appendix of Green et al., JACC 2000; 35 (5): 1245-55:
The Kansas City Cardiomyopathy Questionnaire clinical summary score (KCCQ-CSS) is used for interpretation of the KCCQ and scores range from 0 to 100 where higher scores indicate better function. KCCQ-CSS is calculated as the mean of the available summary scores Physical Limitation Score and Total Symptom Score from the KCCQ. […] “Total Symptom Score” is calculated as the mean of the available summary scores Symptom Frequency Score and Symptom Burden Score. “Symptom Frequency Score” is calculated, if answer to at least two of Questions 3, 5, 7 and 9 are not missing, as 100*(mean of S3, S5, S7 and S9 answered), where S3=[(Question 3)−1]/4, S5=[(Question 5)−1]/6, S7=[(Question 7)−1]/6, and S9=[(Question 9)−1]/4; answers to Question 3 are scored as follows: Every morning=1, 3 or more times a week but not every day=2, 1-2 times a week=3, Less than once a week=4, Never over the past 2 weeks=5; answers to Questions 5 and 7 are scored as follows: All of the time=1, Several times a day=2, At least once a day=3, 3 or more times a week but not every day=4, 1-2 times a week=5, Less than once a week=6, or Never over the past 2 weeks=7; and answers to Question 9 are scored as follows: Every night=1, 3 or more times a week but not every day=2, 1-2 times a week=3, Less than once a week=4, or Never over the past 2 weeks=5. “Symptom Burden Score” is calculated, if answer to at least one of Questions 4, 6 and 8 is not missing, as 100*[(mean of Questions 4, 6 and 8 answered)−1]/4 where answers are scored as follows: Extremely bothersome=1, Quite a bit bothersome=2, Moderately bothersome=3, Slightly bothersome=4, Not at all bothersome=5, or I've had no swelling/fatigue/shortness of breath=5. The term “mean of questions answered” as used herein refers to that for a scale with n in questions where the subject must answer m to score the scale, but the subject answers only n-i, where n-i>=m, then the mean of those questions is calculated as (sum of answers to those n-i questions)/(n-i).
The six minute walk test (6MWT) is a determination of the distance a subject is able to walk over a period of six minutes where the subject traverses, at its own pace and resting as needed, back and forth along a marked walkway of 20 meters with the goal of walking as far as possible without running. The distance obtained from 6MWT is referred to as the six minute walk distance (6MWD). The 6MWT is a direct and timed measure of walking ability, which is technically simple and reproducible.
Heart failure exists in different degrees of severity. The most commonly used classification system of heart failure is the New York Heart Association Functional Classification (also referred to as “NYHA”). NYHA categorises subjects in one of four classes I-IV (Table A), based on their degree of limitation during physical activity, and optionally an additional subgroup A-D based on objective assessments, for further details see The Criteria Committee of the New York Heart Association. Nomenclature and Criteria for Diagnosis of Diseases of the Heart and Great Vessels. 9th ed. Boston, Mass: Little, Brown & Co; 1994:253-256.
A randomised, double-blind, international multicentre, placebo-controlled clinical trial with semaglutide was carried out with 616 human subjects with obesity-related heart failure with preserved ejection fraction, and type 2 diabetes. […]

[1] = pair-wise comparisons vs. placebo, 2.4 mg, type 2 diabetes
[2] = week 0, 2.4 mg once weekly, type 2 diabetes
[3] = week 20, 2.4 mg once weekly, type 2 diabetes
[4] = week 36, 2.4 mg once weekly, type 2 diabetes
[5] = week 52, 2.4 mg once weekly vs. placebo, type 2 diabetes
[6] = week 52, 2.4 mg once weekly vs. placebo, type 2 diabetes, listed as semaglutide
[7] = week 52, 2.4 mg once weekly, type 2 diabetes
[8] = week 52, 2.4 mg once weekly, type 2 diabetes, ANCOVA estimate

With “N-epsilon26-[2-(2-{2-[2-(2-{2-[(S)-4-Carboxy-4-(17-carboxyheptadecanoyl-amino) butyrylamino]ethoxy}ethoxy) acetylamino]ethoxy}ethoxy) acetyl] [Aib8,Arg34] GLP-1-(7-37) [Semaglutide]” the Inflammation (HFpEF, obesity and type 2 diabetes, no data given) was “reduced inflammation”, the “Time to first HF event from randomisation leading to either hospitalisation or an urgent visit, Hazard ratio” value (type 2 diabetes) was 0.40 and the “Time to first HF event from randomisation leading to either hospitalisation or an urgent visit, Hazard ratio” value (type 2 diabetes, listed as semaglutide) was “risk of experiencing a heart failure event was less”. For the same substance, the “Patients improved or with no change in NYHA class compared with placebo” value (baseline to 52 weeks, type 2 diabetes) was “more patients treated with semaglutide improved or observed no change in NYHA class”, the “More wins on semaglutide as compared to placebo” value (hierarchical composite endpoint, type 2 diabetes) was 59% and the “Hierarchical composite endpoint, Loss: All-cause death” value [1] was 1.9%. For the same substance, the “Hierarchical composite endpoint, Loss: Change in 6MWD ≥30 meters difference” value [1] was 4.1%, the “Hierarchical composite endpoint, Loss: Change in KCCQ-CSS ≥5 points difference” value [1] was 6.2% and the “Hierarchical composite endpoint, Loss: Change in KCCQ-CSS ≥10 points difference” value [1] was 5.0%. The “Hierarchical composite endpoint, Loss: Change in KCCQ-CSS ≥15 points difference” value [1] was 18.2%, the “Hierarchical composite endpoint, Loss: Number of HF events” value [1] was 1.2% and the “Hierarchical composite endpoint, Loss: Time-to-first HF event” value [1] was 0.0%. For the same substance, the “Hierarchical composite endpoint, Loss: Total” value [1] was 36.8%, the “Hierarchical composite endpoint, Proportion of ties” value [1] was “Proportion of ties: 4.5%” and the “Hierarchical composite endpoint, Wins: All-cause death” value [1] was 2.9%. For the same substance, the “Hierarchical composite endpoint, Wins: Change in 6MWD ≥30 meters difference” value [1] was 4.9%, the “Hierarchical composite endpoint, Wins: Change in KCCQ-CSS ≥5 points difference” value [1] was 7.3% and the “Hierarchical composite endpoint, Wins: Change in KCCQ-CSS ≥10 points difference” value [1] was 6.6%. The “Hierarchical composite endpoint, Wins: Change in KCCQ-CSS ≥15 points difference” value [1] was 32.3%, the “Hierarchical composite endpoint, Wins: Number of HF events” value [1] was 4.7% and the “Hierarchical composite endpoint, Wins: Time-to-first HF event” value [1] was 0.0%. The “Hierarchical composite endpoint, Wins: Total” value [1] was 58.7%, the “Observed KCCQ-CSS mean change from baseline” value (from here on “Observed KCCQ-CSS mean change”) [2] was 0 and the “Observed body weight (%) mean change from baseline” value [2] was 0%. The “Observed six minutes walk distance mean change from baseline” value [2] was 0 meters, the “Observed body weight (%) mean change from baseline” value (week 4, dose escalation to 2.4 mg once weekly, type 2 diabetes) was −1.8% and the “Observed body weight (%) mean change from baseline” value (week 8, dose escalation to 2.4 mg once weekly, type 2 diabetes) was −3.1%. The “Observed body weight (%) mean change from baseline” value (week 12, dose escalation to 2.4 mg once weekly, type 2 diabetes) was −4.5%, the “Observed body weight (%) mean change from baseline” value (week 16, dose escalation to 2.4 mg once weekly, type 2 diabetes) was −5.8% and the “Observed KCCQ-CSS mean change” value [3] was 11.1. For the same substance, the “Observed body weight (%) mean change from baseline” value [3] was −6.6%, the “Observed six minutes walk distance mean change from baseline” value [3] was 23.0 meters and the “Observed body weight (%) mean change from baseline” value (week 28, 2.4 mg once weekly, type 2 diabetes) was −8.0%. For the same substance, the “Observed KCCQ-CSS mean change” value [4] was 14.2, the “Observed body weight (%) mean change from baseline” value [4] was −9.1% and the “Observed body weight (%) mean change from baseline” value (week 44, 2.4 mg once weekly, type 2 diabetes) was −9.8%. For the same substance, the “Body weight (%) change from baseline to week 52, Treatment difference vs. placebo” value [5] was −6.4%, the “Improvement of ≥5 points in KCCQ-CSS, Treatment Odds ratio vs. placebo” value [5] was 2.29 and the “Improvement of ≥10 points in KCCQ-CSS, Treatment Odds ratio vs. placebo” value [5] was 2.06. The “KCCQ-CSS change from baseline to week 52, Treatment difference vs. placebo” value [5] was 7.3 score, the “Six minutes walk distance change from baseline to week 52, Treatment difference vs. placebo” value [5] was 14.3 meters and the “Body weight (%) change from baseline to week 52, Treatment difference vs. placebo” value [6] was “significantly larger body weight loss”. The “KCCQ-CSS change from baseline to week 52, Treatment difference vs. placebo” value [6] was “significantly larger improvement in KCCQ-CSS”, the “Six minutes walk distance change from baseline to week 52, Treatment difference vs. placebo” value [6] was “significantly larger improvement in six minutes walk distance” and the “NYHA class from baseline to week 52: Improvement” value [7] was 33.9%. For the same substance, the “NYHA class from baseline to week 52: No change” value [7] was 63.7%, the “NYHA class from baseline to week 52: Worsening” value [7] was 2.4% and the “Observed KCCQ-CSS mean change” value [7] was 14.4. For the same substance, the “Observed body weight (%) mean change from baseline” value [7] was −10.2%, the “Observed proportion improving ≥5 points from baseline in KCCQ-CSS” value [7] was 73% and the “Observed proportion improving ≥10 points from baseline in KCCQ-CSS” value [7] was 58%. The “Observed six minutes walk distance mean change from baseline” value [7] was 18.6 meters, the “Body weight (%) change from baseline to week 52, Estimate” value [8] was −9.8% and the “KCCQ-CSS change from baseline to week 52, Estimate” value [8] was 13.7 score. The “Six minutes walk distance change from baseline to week 52, Estimate” value [8] was 12.7 meters.
